# In ChEMBL document CHEMBL3407401, “Development of certain novel N-(2-(2-(2-oxoindolin-3-ylidene)hydrazinecarbonyl)phenyl)-benzamides and 3-(2-oxoindolin-3-ylideneamino)-2-substituted quinazolin-4(3H)-ones as CFM-1 analogs: design, synthesis, QSAR analysis and anticancer activity” (Eur J Med Chem, 2015):
# How the values were obtained:
# [1] = Cytotoxicity against human UW228-2 cells assessed as inhibition of cell survival after 24 hrs by MTT assay; assay type: functional, cell-based; settings: UW228-2, 24 h
# [2] = system: Daoy; assay: Cytotoxicity against human DaOY cells assessed as inhibition of cell survival at 25 ug/ml after 24 hrs by MTT assay; assay type: functional
# [3] = Cytotoxicity against human UW228-2 cells assessed as inhibition of cell survival at 25 ug/ml after 24 hrs by MTT assay; assay type: functional; settings: UW228-2, 24 h
# [4] = Cytotoxicity against human HuH7 cells assessed as inhibition of cell survival after 24 hrs by MTT assay; assay type: functional, cell-based; settings: Huh-7, 24 h
# [5] = system: Daoy; assay: Cytotoxicity against human DaOY cells assessed as inhibition of cell survival after 24 hrs by MTT assay; assay type: functional, cell-based
# [6] = Cytotoxicity against human HuH7 cells assessed as inhibition of cell survival at 25 ug/ml after 24 hrs by MTT assay; assay type: functional; settings: Huh-7, 24 h
# [7] = system: HeLa; assay: Cytotoxicity against human HeLa cells assessed as inhibition of cell survival at 25 ug/ml after 24 hrs by MTT assay; assay type: functional
# [8] = system: MDA-MB-231; assay: Cytotoxicity against human MDA-MB-231 cells assessed as inhibition of cell survival at 25 ug/ml after 24 hrs by MTT assay; assay type: functional; settings: MDA-MB-231, 24 h
# [9] = system: HeLa; assay: Cytotoxicity against human HeLa cells assessed as inhibition of cell survival after 24 hrs by MTT assay; assay type: functional, cell-based
# [10] = system: MDA-MB-231; assay: Cytotoxicity against human MDA-MB-231 cells assessed as inhibition of cell survival after 24 hrs by MTT assay; assay type: functional, cell-based; settings: MDA-MB-231, 24 h
Compound,IC50 [1] [µg/mL],inhibition at 25 µg/mL [2] [%],inhibition at 25 µg/mL [3] [%],IC50 [4] [µg/mL],IC50 [5] [µg/mL],inhibition at 25 µg/mL [6] [%],inhibition at 25 µg/mL [7] [%],inhibition at 25 µg/mL [8] [%],IC50 [9] [µg/mL],IC50 [10] [µg/mL]
Cc1ccc(C(=O)Nc2ccccc2C(=O)N/N=C2\C(=O)Nc3ccccc32)cc1,6.06,72.8,71.7,5,3.94,56.4,30.4,46.8,–,–
Cc1ccc(C(=O)Nc2ccccc2C(=O)N/N=C2\C(=O)Nc3ccc(Cl)cc32)cc1,6.87,77.1,88.7,3.2,1.86,84.1,86.7,85,6.52,5.95
Cc1ccc(C(=O)Nc2ccccc2C(=O)N/N=C2\C(=O)Nc3ccc(C)cc32)cc1,–,49.1,23.2,–,–,38,46.5,37.7,–,–
COc1ccc2c(c1)/C(=N/NC(=O)c1ccccc1NC(=O)c1ccc(C)cc1)C(=O)N2,5.82,77.2,84.8,4.6,4.42,81.6,80.3,59.4,8.09,10.9
Cc1ccc(C(=O)Nc2ccccc2C(=O)N/N=C2\C(=O)Nc3ccc([N+](=O)[O-])cc32)cc1,–,75.8,38.5,11.6,6.61,55.2,26.8,30.2,–,–
O=C1Nc2ccccc2/C1=N/NC(=O)c1ccccc1NC(=O)c1ccc([N+](=O)[O-])cc1,20,79.1,51.8,–,2.72,48.6,55,44.9,16.5,–
O=C1Nc2ccc(Cl)cc2/C1=N/NC(=O)c1ccccc1NC(=O)c1ccc([N+](=O)[O-])cc1,–,36.6,41.6,–,–,43.1,31,35.5,–,–
Cc1ccc2c(c1)/C(=N/NC(=O)c1ccccc1NC(=O)c1ccc([N+](=O)[O-])cc1)C(=O)N2,9.62,62.7,58.7,19.3,11.9,55.8,46.1,40.8,–,–
COc1ccc2c(c1)/C(=N/NC(=O)c1ccccc1NC(=O)c1ccc([N+](=O)[O-])cc1)C(=O)N2,–,11.1,24.5,–,–,33.2,16.3,34.8,–,–
O=C1Nc2ccc([N+](=O)[O-])cc2/C1=N/NC(=O)c1ccccc1NC(=O)c1ccc([N+](=O)[O-])cc1,–,31.9,4.8,–,–,8.2,14.7,0,–,–
Cc1ccc(-c2nc3ccccc3c(=O)n2/N=C2\C(=O)Nc3ccccc32)cc1,–,41.4,9.3,–,–,2.9,42.3,24.7,–,–
Cc1ccc(-c2nc3ccccc3c(=O)n2/N=C2\C(=O)Nc3ccc(Cl)cc32)cc1,5.7,75.4,88,3.76,1.46,83.3,80.8,78.1,8.6,4.8
Cc1ccc(-c2nc3ccccc3c(=O)n2/N=C2\C(=O)Nc3ccc(C)cc32)cc1,–,47,2.1,–,–,7.2,42.8,34.3,–,–
COc1ccc2c(c1)/C(=N/n1c(-c3ccc(C)cc3)nc3ccccc3c1=O)C(=O)N2,20.8,82.8,58.9,22.8,3.61,53.6,68,35.4,9.89,–
Cc1ccc(-c2nc3ccccc3c(=O)n2/N=C2\C(=O)Nc3ccc([N+](=O)[O-])cc32)cc1,–,58.8,22.8,–,11.7,0,52.9,23.6,21.1,–
O=C1Nc2ccccc2/C1=N/n1c(-c2cccs2)nc2ccccc2c1=O,–,69.7,0,–,5.4,0,36.2,10.7,–,–
O=C1Nc2ccc(Cl)cc2/C1=N/n1c(-c2cccs2)nc2ccccc2c1=O,–,69.3,28.4,–,15.7,0,69.7,6.1,17,–
Cc1ccc2c(c1)/C(=N/n1c(-c3cccs3)nc3ccccc3c1=O)C(=O)N2,–,59.4,32.1,–,19,32.9,57.8,29.5,19.3,–
COc1ccc2c(c1)/C(=N/n1c(-c3cccs3)nc3ccccc3c1=O)C(=O)N2,21.4,80.5,56.4,19.9,3.25,62.7,67,13.6,11,–
O=C1Nc2ccc([N+](=O)[O-])cc2/C1=N/n1c(-c2cccs2)nc2ccccc2c1=O,–,18.4,0,–,–,0,0,0,–,–
Cc1cc(Br)cc2c1NC(=O)/C2=C1\SC(=S)NC1=O,16.4,64.8,51.4,8.18,8.12,61.8,57.6,52.5,13.5,19.7
